Like-named read-outs stand apart in the source and are kept apart here.
Tests used:
Assay in all cases: Glasshouse assay for herbicidal activity (pre- and post-emergence), percentage phytotoxicity
Format in all cases: in vivo
[1] = tested on: Alopecurus myosuroides (ALOMY); details: Alopecurus myosuroides
Method: (§1) Test—Glasshouse Assay for Herbicidal Activity
(§2) Seeds of a variety of monocotyledonous and dicotyledonous test plants are sown in standard soil in pots. The plants are cultivated for one day (for pre-emergence (PRE)) or for about 12 days (for post-emergence (POST)) under controlled conditions in a glasshouse (warm climate species at 24/18° C., cool climate species at 20/16° C., both at day/night; 16 hours light; 65% humidity).
(§3) The test plants are then grown on, in a glasshouse (greenhouse) under controlled conditions (warm climate species at 24/18° C., cool climate species at 20/16° C., both at day/night; 16 hours light; 65% humidity) and are watered twice daily. 15 days after application of the test herbicide (15 DAA) (for post-emergence), and 20 days after application of the test herbicide (20 DAA) (for pre-emergence), the test plants are evaluated visually, and an assessed percentage phytotoxicity score is given for each herbicidal application on each plant species (with 100%=total damage to plant; 0%=no damage to plant).
(§4) The plant species tested are as follows: Alopecurus myosuroides (ALOMY), Avena fatua (AVEFA), Lolium perenne (LOLPE), Echinochloa crus-galli (ECHCG).

Avena fatua (AVEFA) = details: Avena fatua
Method: as §1, §2, §3, §4

[2] = tested on: Echinochloa crus-galli (ECHCG); details: Echinochloa crus-galli
Method: as §1, §2, §3, §4

Lolium perenne (LOLPE) = details: Lolium perenne
Method: as §1, §2, §3, §4

[3] = post-emergence, 360 h, POST-emergence, rate 250 g/ha, visual score 15 DAA (100%=total damage, 0%=no damage), read-out: Post-emergence herbicidal activity (percentage phytotoxicity) ALOMY POST
[4] = pre-emergence, 480 h, PRE-emergence, rate 250 g/ha, visual score 20 DAA (100%=total damage, 0%=no damage), read-out: Pre-emergence herbicidal activity (percentage phytotoxicity) ALOMY PRE
[5] = post-emergence, 360 h, POST-emergence, rate 250 g/ha, visual score 15 DAA (100%=total damage, 0%=no damage), read-out: Post-emergence herbicidal activity (percentage phytotoxicity) AVEFA POST
[6] = pre-emergence, 480 h, PRE-emergence, rate 250 g/ha, visual score 20 DAA (100%=total damage, 0%=no damage), read-out: Pre-emergence herbicidal activity (percentage phytotoxicity) AVEFA PRE
[7] = post-emergence, 360 h, POST-emergence, rate 250 g/ha, visual score 15 DAA (100%=total damage, 0%=no damage), read-out: Post-emergence herbicidal activity (percentage phytotoxicity) ECHCG POST
[8] = pre-emergence, 480 h, PRE-emergence, rate 250 g/ha, visual score 20 DAA (100%=total damage, 0%=no damage), read-out: Pre-emergence herbicidal activity (percentage phytotoxicity) ECHCG PRE
[9] = post-emergence, 360 h, POST-emergence, rate 250 g/ha, visual score 15 DAA (100%=total damage, 0%=no damage), read-out: Post-emergence herbicidal activity (percentage phytotoxicity) LOLPE POST
[10] = pre-emergence, 480 h, PRE-emergence, rate 250 g/ha, visual score 20 DAA (100%=total damage, 0%=no damage), read-out: Pre-emergence herbicidal activity (percentage phytotoxicity) LOLPE PRE
[11] = post-emergence, 360 h, 250 g/ha, post-emergence, 15 DAA, visual assessment (100%=total damage, 0%=no damage), read-out: Post-emergence herbicidal activity (percentage phytotoxicity) ALOMY POST
[12] = pre-emergence, 480 h, 250 g/ha, pre-emergence, 20 DAA, visual assessment (100%=total damage, 0%=no damage), read-out: Pre-emergence herbicidal activity (percentage phytotoxicity) ALOMY PRE
[13] = post-emergence, 360 h, 250 g/ha, post-emergence, 15 DAA, visual assessment (100%=total damage, 0%=no damage), read-out: Post-emergence herbicidal activity (percentage phytotoxicity) AVEFA POST
[14] = pre-emergence, 480 h, 250 g/ha, pre-emergence, 20 DAA, visual assessment (100%=total damage, 0%=no damage), read-out: Pre-emergence herbicidal activity (percentage phytotoxicity) AVEFA PRE
[15] = post-emergence, 360 h, 250 g/ha, post-emergence, 15 DAA, visual assessment (100%=total damage, 0%=no damage), read-out: Post-emergence herbicidal activity (percentage phytotoxicity) ECHCG POST
[16] = pre-emergence, 480 h, 250 g/ha, pre-emergence, 20 DAA, visual assessment (100%=total damage, 0%=no damage), read-out: Pre-emergence herbicidal activity (percentage phytotoxicity) ECHCG PRE
[17] = post-emergence, 360 h, 250 g/ha, post-emergence, 15 DAA, visual assessment (100%=total damage, 0%=no damage), read-out: Post-emergence herbicidal activity (percentage phytotoxicity) LOLPE POST
[18] = pre-emergence, 480 h, 250 g/ha, pre-emergence, 20 DAA, visual assessment (100%=total damage, 0%=no damage), read-out: Pre-emergence herbicidal activity (percentage phytotoxicity) LOLPE PRE
[19] = post-emergence, 360 h, Rate 250 g/ha, post-emergence, assessed visually 15 DAA, 100%=total damage, 0%=no damage, read-out: Post-emergence herbicidal activity (percentage phytotoxicity) ALOMY POST
[20] = pre-emergence, 480 h, Rate 250 g/ha, pre-emergence, assessed visually 20 DAA, 100%=total damage, 0%=no damage, read-out: Pre-emergence herbicidal activity (percentage phytotoxicity) ALOMY PRE
[21] = post-emergence, 360 h, Rate 250 g/ha, post-emergence, assessed visually 15 DAA, 100%=total damage, 0%=no damage, read-out: Post-emergence herbicidal activity (percentage phytotoxicity) AVEFA POST
[22] = pre-emergence, 480 h, Rate 250 g/ha, pre-emergence, assessed visually 20 DAA, 100%=total damage, 0%=no damage, read-out: Pre-emergence herbicidal activity (percentage phytotoxicity) AVEFA PRE
[23] = post-emergence, 360 h, Rate 250 g/ha, post-emergence, assessed visually 15 DAA, 100%=total damage, 0%=no damage, read-out: Post-emergence herbicidal activity (percentage phytotoxicity) ECHCG POST
[24] = pre-emergence, 480 h, Rate 250 g/ha, pre-emergence, assessed visually 20 DAA, 100%=total damage, 0%=no damage, read-out: Pre-emergence herbicidal activity (percentage phytotoxicity) ECHCG PRE
[25] = post-emergence, 360 h, Rate 250 g/ha, post-emergence, assessed visually 15 DAA, 100%=total damage, 0%=no damage, read-out: Post-emergence herbicidal activity (percentage phytotoxicity) LOLPE POST
[26] = pre-emergence, 480 h, Rate 250 g/ha, pre-emergence, assessed visually 20 DAA, 100%=total damage, 0%=no damage, read-out: Pre-emergence herbicidal activity (percentage phytotoxicity) LOLPE PRE

Structure (SMILES)	pest or weed control at 250 g/ha [1, 3] [%]	pest or weed control at 250 g/ha [1, 4] [%]	pest or weed control at 250 g/ha (Avena fatua (AVEFA); [5]) [%]	pest or weed control at 250 g/ha (Avena fatua (AVEFA); [6]) [%]	pest or weed control at 250 g/ha [2, 7] [%]	pest or weed control at 250 g/ha [2, 8] [%]	pest or weed control at 250 g/ha (Lolium perenne (LOLPE); [9]) [%]	pest or weed control at 250 g/ha (Lolium perenne (LOLPE); [10]) [%]	pest or weed control at 250 g/ha [1, 11] [%]	pest or weed control at 250 g/ha [1, 12] [%]	pest or weed control at 250 g/ha (Avena fatua (AVEFA); [13]) [%]	pest or weed control at 250 g/ha (Avena fatua (AVEFA); [14]) [%]	pest or weed control at 250 g/ha [2, 15] [%]	pest or weed control at 250 g/ha [2, 16] [%]	pest or weed control at 250 g/ha (Lolium perenne (LOLPE); [17]) [%]	pest or weed control at 250 g/ha (Lolium perenne (LOLPE); [18]) [%]	pest or weed control at 250 g/ha [1, 19] [%]	pest or weed control at 250 g/ha [1, 20] [%]	pest or weed control at 250 g/ha (Avena fatua (AVEFA); [21]) [%]	pest or weed control at 250 g/ha (Avena fatua (AVEFA); [22]) [%]	further results
Cc1cc(-c2ccc(Br)cn2)cc(C)c1C1C(=O)CC(CC(=O)NC(C)(C)C)C1=O (stereo not drawn) [Compound B322]	100	90	100	70	100	90	100	90													
CCC(C)NC(=O)CC1CC(=O)C(c2c(C)cc(-c3ncc(Cl)cc3F)cc2C)C1=O (stereo not drawn) [Compound B119]									100	100	100	90	100	100	100	100					
C#CC(C)(C)NC(=O)CC1CC(=O)C(c2c(C)cc(C)cc2C)C1=O (stereo not drawn) [Compound A11]																	80	70	70	50	pest or weed control at 250 g/ha [2, 23]: 80%; pest or weed control at 250 g/ha [2, 24]: 70%; pest or weed control at 250 g/ha (Lolium perenne (LOLPE); [25]): 70%; pest or weed control at 250 g/ha (Lolium perenne (LOLPE); [26]): 70%
C/C=C/CNC(=O)CC1CC(=O)C(c2c(C)cc(-c3ncc(F)cn3)cc2C)C1=O (stereo not drawn) [Compound B303]	100	90	100	80	100	100	100	80													
Cc1cc(-n2cc(Cl)cn2)cc(C)c1C1C(=O)CC(CC(=O)NCC(=O)c2ccccc2)C1=O (stereo not drawn) [Compound A137]																	40	60	70	60	pest or weed control at 250 g/ha [2, 23]: 90%; pest or weed control at 250 g/ha [2, 24]: 70%; pest or weed control at 250 g/ha (Lolium perenne (LOLPE); [25]): 60%; pest or weed control at 250 g/ha (Lolium perenne (LOLPE); [26]): 70%
Cc1cc(-c2ncc(Cl)s2)cc(C)c1C1C(=O)CC(CC(=O)NC(C)(C)C)C1=O (stereo not drawn) [Compound B24]									90	80	80	80	100	100	90	100					

From US10206394B2, “Herbicidal compounds” (Syngenta Participations AG, priority 2014, dated 2019)
